Results on six compounds are retold here after ChEMBL document CHEMBL4765384, “Development of a metabolically stable topoisomerase I poison as anticancer agent” (Eur J Med Chem, 2020).

The IC50 is the concentration that inhibits the measured activity by half. The half-life is the time in which the quantity being followed falls by half. A word on the logD: it is the decadic logarithm of the distribution of all forms, ionised or not, between an organic phase and buffer at a given pH. As a reminder, the solubility is how much of the substance goes into solution per volume. A high value points to much dissolved substance.

Data set [1] deals with MCF7. Put plainly: Cytotoxicity against human MCF7 cells assessed as reduction in cell viability after 48 hr by MTT assay. Conditions: MCF7, 48 h. The class given is functional, cell-based.
Data set [2] in a line: Stability in human liver microsomes assessed as parent compound remaining after 60 mins by LC-MS/MS analysis. Conditions: read-out: Stabilty. The class given is ADME, Microsome. (Microsomes from liver hold many membrane-bound enzymes, among them those of drug oxidation.)
The subject of data set [3] is HEK293. Put plainly: Cytotoxicity against HEK293 cells assessed as reduction in cell viability after 48 hr by MTT assay. The data set is classed as cell-based. Conditions: Homo sapiens, HEK293, 48 h. On the technique in general: Tetrazolium dyes change colour on reduction, which living cells bring about.
The target of data set [4] is T1, DNA topoisomerase 1 (Homo sapiens, UniProt P11387).
T1 sequence (P11387 whole entry): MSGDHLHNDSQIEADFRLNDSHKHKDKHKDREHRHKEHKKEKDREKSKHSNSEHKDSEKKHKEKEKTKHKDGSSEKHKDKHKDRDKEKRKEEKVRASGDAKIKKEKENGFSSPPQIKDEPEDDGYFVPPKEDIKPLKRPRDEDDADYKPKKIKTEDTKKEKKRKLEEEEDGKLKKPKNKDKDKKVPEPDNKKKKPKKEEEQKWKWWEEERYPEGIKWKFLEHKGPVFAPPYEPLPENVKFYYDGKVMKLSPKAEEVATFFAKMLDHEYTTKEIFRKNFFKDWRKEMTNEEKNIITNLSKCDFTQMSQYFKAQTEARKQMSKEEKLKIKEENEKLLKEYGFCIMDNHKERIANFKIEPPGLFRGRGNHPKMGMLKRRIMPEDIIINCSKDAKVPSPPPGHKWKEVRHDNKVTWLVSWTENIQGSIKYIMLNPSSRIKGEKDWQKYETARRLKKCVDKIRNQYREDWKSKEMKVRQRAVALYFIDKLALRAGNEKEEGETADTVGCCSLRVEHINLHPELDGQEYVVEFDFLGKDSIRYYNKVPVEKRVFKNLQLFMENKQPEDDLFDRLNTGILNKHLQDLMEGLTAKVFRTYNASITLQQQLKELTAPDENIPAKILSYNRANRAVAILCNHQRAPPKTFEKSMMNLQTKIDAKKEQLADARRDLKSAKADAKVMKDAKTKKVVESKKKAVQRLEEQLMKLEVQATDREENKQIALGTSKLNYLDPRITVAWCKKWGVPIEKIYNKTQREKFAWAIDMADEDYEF
Nature of the data set: Inhibition of Top1 in human MCF7 cells using supercoiled pBS (SK+) DNA as substrate incubated for 30 mins by ethidium bromide staining based agarose gel electrophoresis analysis. The class given is cell-based.

Data set [5] is described as follows: Stability in human plasma assessed as parent compound remaining after 2 hrs. The class given is ADME, cell-free. Conditions: read-out: Stabilty.
Data set [6] in a line: Half life in human liver microsomes by LC-MS/MS analysis. The class given is ADME, Microsome.
Data set [7] in a line: Intrinsic clearance in human liver microsomes after 60 mins in presence of cofactor by LC-MS/MS analysis. The class given is ADME, Microsome. Conditions: 1 h.
Data set [8] in a line: Stability in human liver microsomes assessed as parent compound remaining after 60 mins in presence of cofactor by LC-MS/MS analysis. The class given is ADME, Microsome. Conditions: read-out: Stabilty.
Data set [9] deals with T1, DNA topoisomerase 1. Nature of the data set: Inhibition of recombinant human Top1 expressed in baculovirus infected sf9 insect cells using supercoiled pBS (SK+) DNA as substrate incubated for 30 mins by ethidium bromide staining based agarose gel electrophoresis analysis.
Data set [10] can be described thus: Lipophilicity, logD of the compound at pH 7.4. The data set is classed as physicochemical. Conditions: buffer.
Data set [11] can be described thus: Aqueous solubility of compound. The data set is classed as physicochemical.

Molecules are shown by their SMILES. ≈ marks a conversion by molar mass, not a printed value. Some results are limits rather than exact numbers.

As for `Nc1ccc(-c2ccc3ncc(-c4nnco4)c(NCCCn4ccnc4)c3c2)cc1`, the figures for the IC50 in data set [1], in data set [3] and in data set [4] were 2.5 µM, above 10 µM and 2.5 µM, respectively. The remaining at 1 h in data set [2] turned out to be 53.7%; in data set [8], 93.8%. Moreover, the remaining at 2 h in data set [5] came out at 91.3%. The compound also returned a half-life in data set [6] of 69.1 min. Also, in data set [7], the CLH stood at 10 µL/min/mg.

For the compound `COc1ccc(-c2ccc3ncc(-c4nnco4)c(NCCCN4CCCC4)c3c2)cc1`, the IC50 in data set [9] is above 10 µM.

In the case of `COc1ccc(-c2ccc3ncc(-c4nnco4)c(NCCCn4ccnc4)c3c2)cc1`, the remaining at 1 h in [2] stood at 1.68%; in [8], 112%. The same compound came in with a half-life in data set [6] of 9.94 min. Also, the CLH in [7] amounted to 69.7 µL/min/mg.

Turning to `CC[C@@]1(O)C(=O)OCc2c1cc1n(c2=O)Cc2cc3ccccc3nc2-1` [CAMPTOTHECIN], the IC50 in [3] came to 8.75 µM.

As for `Cc1ccc(-c2ccc3ncc(-c4nnco4)c(NCCCn4ccnc4)c3c2)cc1`, the logD in data set [10] is above 3.5. Moreover, the figures for the remaining at 1 h in data set [2] and in data set [8] were 0% and 93%, respectively. Further, in data set [5], the remaining at 2 h worked out at 90.8%. This compound also showed a half-life in data set [6] of 7.77 min. Further, the solubility in data set [11] was 0.3 µg/mL (≈ 0.731 µM). The CLH in [7] was 89.3 µL/min/mg.

With `COc1ccc(-c2ccc3ncc(-c4nnco4)c(NCCCn4cccc4)c3c2)cc1`, in data set [9], the IC50 was above 10 µM.
